One data set concerns gastric secretion. The data set is described as follows: Inhibition of Gastric Secretion in Rats (pylorus ligature). Format: in vivo, Sprague-Dawley rats (male). As to conditions: Rattus norvegicus, sc, 4 h, s.c. at the time of ligature, read-out: ED50 Antisecretory s.c. The procedure: (2) Inhibition of Gastric Secretion in Rats (Shay, Gastroenterology, 1945, 43, 5).
Gastric antisecretory activity was evaluated in rats by the pylorus ligature technique. Six Sprague-Dawley male rats (110-130 g) were used for each group. Twenty-four hours before the test, the rats were deprived of food but their water supply was maintained. On the day of the operation, the pylorus was ligated under light ether anaesthesia. Four hours after the ligature, the rats were sacrificed, the stomach secretion was collected and centrifuged at 3500 r.p.m. for 10 minutes, and the volume, less sediment, was determined.
The amount of the free hydrochloric acid in the gastric juice was determined by titration against 0.01 N sodium hydroxide, using Topfer's Indicator. Each compound was injected subcutaneously at the time of ligature.

The nature of data set [1]: Anticholinergic Activity in Rats. More on the design: species or system Sprague-Dawley rats (male). The following applies: rat, in vivo. The protocol:
(3) Anticholinergic Activity in Rats. Considering that many anti-ulcer agents display, as does atropine, a remarkable but undesired anti-cholinergic activity, some derivatives were assessed for their antagonism against chromodacryorrhea induced by carbacholine in rats. (Winburg M. et al, J. Pharm. Exp. Therap., 1949, 95, 53).

A further data set is described as follows: Toxicity (LD50) in mice. The following applies: mouse, in vivo, po, os. The protocol: Four compounds were examined also for the activity on acetylsalicyclic acid- and cysteamine-induced ulcers and their toxicity was also determined in mice.
Data set [2] concerns acetylsalicylic acid-induced gastric ulcers. The experiment in a line: Inhibition of Acetylsalicylic Acid-Induced Gastric Ulcers in Rats. Format: in vivo, Sprague-Dawley rats (male). As to conditions: Rattus norvegicus, 4 h. The protocol: (4) Inhibition of Acetylsalicylic Acid-Induced Gastric Ulcers in Rats.
Six Sprague-Dawley male rats (200-250 g) were used for each group. Twenty-four hours before the test, the rats were deprived of food but their water supply was maintained. Acetylsalicylic acid (100 mg/Kg) suspended in 5% gum arabic solution was given orally to the rats. Antagonists, at 3 dose levels, were given orally 60 minutes, and subcutaneously 30 minutes, before the acetylsalicylic acid treatment.
After sacrificing the animals, four hours after administration of the antagonist, the stomachs were removed, slightly inflated and immersed in 1% formalin solution for 10 minutes for fixation.
Subsequently, the stomachs were incised along the greater curvature and the lengths of lesions measured under a dissecting microscope (10 X) with a square grid. The sum of the lengths (mm) of the lesions per rat was used as the ulcer index. The percentage inhibition was calculated in respect of the ulcer index of the control group.

In a further data set the test system is restraint ulcer. The data set is described as follows: Inhibition of Restraint Ulcer in Rats. As to conditions: Rattus norvegicus. The data set is classed as in vivo, Sprague-Dawley rats (male). The protocol: (B 1) Inhibition of Restraint Ulcer in Rats (Bonfils et al, Therapie, 1960, 15, 1096).
Six Sprague - Dawley male rats (100-120 g) fasted for 24 hours were used for each group. A square flexible small-mesh wire netting was used for immobilization. After 4 hours immobilization the rats were sacrificed, their stomachs were removed, and lesions counted under a dissecting microscope.
The results obtained are reported below in Table 1, wherein the values are given as ED50.
The compounds were administered subcutaneously (s.c.) immediately before the immobilization or orally (os) one hour before.

Data set [3] deals with cysteamine-induced duodenal lesions. The experiment in a line: Inhibition of Cysteamine-Induced Duodenal Lesions in Rats. The data set is classed as in vivo, Sprague-Dawley rats (male). The following applies: Rattus norvegicus. The procedure: (5) Inhibition of Cysteamine-Induced Duodenal Lesions in Rats.
Six Sprague-Dawley male rats (200-225 g) were used for each group. Twenty-four hours before the test, the rats were deprived of food but allowed free access to water. Cysteamine HCl (400 mg/Kg) dissolved in physiological saline was administered subcutaneously.
Antagonists were given orally 60 minutes, and subcutaneously 30 minutes, before the cysteamine treatment. The animals were kept fasting completely for 18-24 hours after cysteamine administration, then sacrificed by an overdose of ether.
The stomach and duodenum of each rat were excised to determine the presence of gastroduodenal lesions. The sum of the area (mm^2) of lesions for each rat was measured under a dissecting microscope (10X) with a square grid and then used as an ulcer index. The percentage inhibition was calculated in respect of the ulcer index of the control group.

The mark [4] stands for this setting: po, os, read-out: ED50 Anticholinergic os.
Where [5] appears, read: sc, read-out: ED50 Anticholinergic s.c.
Where [6] appears, read: po, orally 60 minutes before acetylsalicylic acid, read-out: ED50 Acetylsalicilic acid os.
Where [7] appears, read: sc, s.c. 30 minutes before acetylsalicylic acid, read-out: ED50 Acetylsalicilic acid s.c.
Setting [8] is: po, 1 h, orally one hour before immobilization, read-out: ED50 Antiulcer os.
Setting [9] is: sc, 4 h, s.c. immediately before the immobilization, read-out: ED50 Antiulcer s.c.
Where [10] appears, read: po, orally 60 minutes before cysteamine, read-out: ED50 Cysteamine os.
Setting [11] is: sc, s.c. 30 minutes before cysteamine, read-out: ED50 Cysteamine s.c.

Read-outs that look alike come from different tables or passages of the source.

The values that follow come from patent US4223146A, “4,5,6,7-Tetrahydroimidazo-[4,5-c]-pyridine derivatives” (Farmitalia Carlo Erba S.p.A., priority 1978, dated 1980).

In general, ED50 refers to the dose that gives a 50% effect, or the effect in half of the subjects. A word on the LD50: it is the dose at which mortality reaches 50%. A low value points to greater toxicity. As for `CCC1c2ncn(CC)c2CCN1C(=S)NC(C)C` (stereo not drawn) [I C2 H5 C2 H5 i.Pr, 1,4-Diethyl-5-(N-isopropylthiocarbamoyl)-4,5,6,7-tetrahydroimidazo-[4,5-c]-pyridine], the ED50 with gastric secretion is 6 mg/kg; in data set [1] (setting [4]), above 400 mg/kg; in data set [1] (setting [5]) it was above 200 mg/kg; in data set [2] (setting [6]), 0.7 mg/kg; in data set [2] (setting [7]), 0.7 mg/kg; in the data set with restraint ulcer (setting [8]), 3.5 mg/kg. In addition, the ED50 in the data set on restraint ulcer (setting [9]) was found to be 2 mg/kg; in data set [3] (setting [10]), 10 mg/kg; in data set [3] (setting [11]), 0.5 mg/kg. In the data set “Toxicity (LD50) in mice”, this compound registered an LD50 above 2500 mg/kg.

As to `CCC1c2ncn(C)c2CCN1C(=S)NC(C)C` (stereo not drawn) [I CH3 C2 H5 i.Pr, 1-Methyl-4-ethyl-5-(N-isopropylthiocarbamoyl)-4,5,6,7-tetrahydroimidazo-[4,5-c]-pyridine], the ED50 was 20 mg/kg in the data set with gastric secretion; above 100 mg/kg in data set [1] (setting [4]); above 100 mg/kg in data set [1] (setting [5]); 20 mg/kg in data set [2] (setting [6]); 10 mg/kg in data set [2] (setting [7]); 2.5 mg/kg with restraint ulcer (setting [8]). Besides, the values for the median effective dose (ED50) (in the data set on restraint ulcer (setting [9]); in data set [3] (setting [10]); in data set [3] (setting [11])) were 4 mg/kg, 40 mg/kg and 20 mg/kg, respectively. This compound also yielded an LD50 in “Toxicity (LD50) in mice” above 2500 mg/kg.

Regarding `CNC(=S)N1CCc2c(ncn2C)C1` [I CH3 H CH3, 1-Methyl-5-(N-methylthiocarbamoyl)-4,5,6,7-tetrahydroimidazo-[4,5-c]-pyridine], the ED50 with gastric secretion was 30 mg/kg; in data set [1] (setting [4]) it was above 100 mg/kg; in data set [1] (setting [5]), above 100 mg/kg; in the data set with restraint ulcer (setting [8]), 25 mg/kg; with restraint ulcer (setting [9]) it was 15 mg/kg.

For the compound `CC(C)NC(=S)N1CCc2c(ncn2C)C1` [I CH3 H i.Pr, 1-Methyl-5-(N-isopropylthiocarbamoyl)-4,5,6,7-tetrahydroimidazo-[4,5-c]-pyridine], the ED50 in the data set on gastric secretion turned out to be 26 mg/kg; in data set [1] (setting [4]) it was 100 mg/kg; in data set [1] (setting [5]), 25 mg/kg; with restraint ulcer (setting [8]) it was 4.5 mg/kg; in the data set with restraint ulcer (setting [9]) it was 1.2 mg/kg.

For `CCC1c2c(ncn2CC)CCN1C(=S)NC(C)C` (stereo not drawn) [II C2 H5 C2 H5 i.Pr, 3,4-diethyl-5-(N-isopropylthiocarbamoyl)-4,5,6,7-tetrahydroimidazo-[4,5-c]-pyridine, reference compound], the ED50 with gastric secretion is 10 mg/kg; in data set [1] (setting [4]), above 100 mg/kg; in data set [1] (setting [5]), above 100 mg/kg; in data set [2] (setting [6]), 9 mg/kg; in data set [2] (setting [7]) it was 6.5 mg/kg; in data set [3] (setting [10]), 40 mg/kg. In addition, in data set [3] (setting [11]), the ED50 was found to be 5.5 mg/kg. This compound also came in with an LD50 in the data set “Toxicity (LD50) in mice” of 870 mg/kg.

`CCC1c2c(ncn2C)CCN1C(=S)NC(C)C` (stereo not drawn) [II CH3 C2 H5 i.Pr, 3-Methyl-4-ethyl-5-(N-isopropylthiocarbamoyl)-4,5,6,7-tetrahydroimidazo-[4,5-c]-pyridine, reference compound]: the ED50 came to 50 mg/kg in the data set on gastric secretion; 60 mg/kg in data set [1] (setting [4]); 40 mg/kg in data set [1] (setting [5]); 40 mg/kg in data set [2] (setting [6]); 25 mg/kg in data set [2] (setting [7]); 50 mg/kg in the data set on restraint ulcer (setting [8]). Besides, the ED50 in the data set with restraint ulcer (setting [9]) came out at 10 mg/kg; in data set [3] (setting [10]), 100 mg/kg; in data set [3] (setting [11]) it was 50 mg/kg. This compound returned an LD50 in “Toxicity (LD50) in mice” of 980 mg/kg.

As for `CNC(=S)N1CCc2ncn(C)c2C1` [II CH3 H CH3, reference compound], the ED50 with gastric secretion came to 50 mg/kg; in data set [1] (setting [4]) it was 100 mg/kg; in data set [1] (setting [5]), 50 mg/kg; in the data set on restraint ulcer (setting [8]), 50 mg/kg; with restraint ulcer (setting [9]), 50 mg/kg.

As for `CC(C)NC(=S)N1CCc2ncn(C)c2C1` [II CH3 H i.Pr, 3-Methyl-5-(N-isopropylthiocarbamoyl)-4,5,6,7-tetrahydroimidazo-[4,5-c]-pyridine], the ED50 in data set [1] (setting [4]) was 50 mg/kg; in data set [1] (setting [5]), 7 mg/kg.

In the case of `C/N=C(\S)NCCSCc1[nH]cnc1C` [Methiamide], the values for the ED50 in data set [1] (setting [4]) and in data set [1] (setting [5]) were 85 mg/kg and 65 mg/kg, respectively.
